Counter-ions that a name gives are not always drawn. Like-named read-outs stand apart in the source and are kept apart here.
Tested on: Acinetobacter baumannii ATCC17961
Assay: 90% growth inhibitory concentration (IC90) determination, antimicrobial susceptibility testing
Assay type: cell-based
Settings: read-out: ATCC 17961 IC90
Protocol: Antimicrobial Susceptibility Testing:
90% Growth Inhibitory Concentration (IC90) Determination
The in vitro antimicrobial activity of the compounds was determined according to the following procedure:
The assay used a 10-points Iso-Sensitest broth medium to measure quantitatively the in vitro activity of the compounds against Acinetobacter baumannii ATCC17961 and ATCC17978.
Stock compounds in DMSO were serially twofold diluted (e.g. range from 50 to 0.097 μM final concentration) in 384 wells microtiter plates and inoculated with 49 μl the bacterial suspension in Iso-Sensitest medium to have a final cell concentration of ˜5×10^(5) CFU/ml in a final volume/well of 50 ul/well. Microtiter plates were incubated at 35±2° C.
Bacterial cell growth was determined with the measurement of optical density at λ=600 nm each minutes over a time course of 16 h. Growth inhibition was calculated during the logarithmic growth of the bacterial cells with determination of the concentration inhibiting 50% (IC50) and 90% (IC90) of the growth.
Table 2 provides the 90% growth inhibitory concentrations (IC90) in micromoles per liter of the compounds of present invention obtained against the strain Acinetobacter baumannii ATCC17961.

[1] = Acinetobacter baumannii, ATCC17961, 16 h, 90% growth inhibition, Iso-Sensitest broth, OD 600 nm over 16 h, 35±2° C.
[2] = 90% growth inhibition, Iso-Sensitest broth, OD 600 nm over 16 h, 35±2° C.
[3] = Acinetobacter baumannii, ATCC17961, 16 h

SMILES | IC90 [1] [nM] | also measured
CCc1cc(Nc2nccn3c(-c4ccc(OC)c(F)c4F)cnc23)ccc1C(=O)NCC[C@H](NC(=O)C1CC[N+](C)(CC2CNC2)CC1)C(=O)OC (mixture of isomers) [Example 123, Methyl (2S)-2-[[1-(azetidin-3-ylmethyl)-1-methyl-piperidin-1-ium-4-carbonyl]amino]-4-[[4-[[3-(2,3-difluoro-4-methoxy-phenyl)imidazo[1,2-a]pyrazin-8-yl]amino]-2-ethyl-benzoyl]amino]butanoate formate 2,2,2-trifluoroacetate (Mixed Salt)] |  | IC90 [2]: 5000 nM
CCc1cc(Nc2nccn3c(-c4ccc(OC)c(F)c4F)cnc23)ccc1C(=O)N[C@H]1C[C@@H](NC(=O)C2CC[N+](C)(CC3CNC3)CC2)C1 (some centres unmarked) [Example 126, 1-(Azetidin-3-ylmethyl)-N-[3-[[4-[[3-(2,3-difluoro-4-methoxy-phenyl)imidazo[1,2-a]pyrazin-8-yl]amino]-2-ethyl-benzoyl]amino]cyclobutyl]-1-methyl-piperidin-1-ium-4-carboxamide formate 2,2,2-trifluoroacetate (Mixed Salt)] | 111 | 
CCc1cc(Nc2nccn3c(-c4ccc(OC)c(F)c4F)cnc23)ccc1C(=O)N[C@H]1[C@@H]2C[N+](C)(CC3CNC3)C[C@@H]21 (mixture of isomers) [Example 137, 4-[[3-(2,3-Difluoro-4-methoxy-phenyl)imidazo[1,2-a]pyrazin-8-yl]amino]-2-ethyl-N-[rac-(1S,5R)-3-(azetidin-3-ylmethyl)-3-methyl-3-azoniabicyclo[3.1.0]hexan-6-yl]benzamide bis(2,2,2-trifluoroacetate)] | 1220 | 
CCc1cc(Nc2nccn3c(-c4ccc(OC)c(F)c4F)cnc23)ccc1C(=O)NCC1CC[N+](C)(CC2CNC2)CC1 (centres unmarked) [Example 134, N-[[1-(Azetidin-3-ylmethyl)-1-methyl-piperidin-1-ium-4-yl]methyl]-4-[[3-(2,3-difluoro-4-methoxy-phenyl)imidazo[1,2-a]pyrazin-8-yl]amino]-2-ethyl-benzamide; 2,2,2-trifluoroacetate bis(2,2,2-trifluoroacetate)] | 350 | 
CCc1cc(Nc2nccn3c(-c4ccc(OC(F)F)c(F)c4F)cnc23)ccc1C(=O)NCC1CC[N+](C)(CC2CNC2)CC1 (centres unmarked) [Example 87, N-[[1-(azetidin-3-ylmethyl)-1-methyl-piperidin-1-ium-4-yl]methyl]-4-[[3-[4-(difluoromethoxy)-2,3-difluoro-phenyl]imidazo[1,2-a]pyrazin-8-yl]amino]-2-ethyl-benzamide Diformate] |  | IC90 [3]: 318 nM
C[N+]1(CC2CCNC2)CCC(C(=O)N2CCN(C(=O)c3ccc(Nc4nccn5c(-c6ccc(OC(F)F)c(F)c6F)cnc45)cc3Cl)CC2)CC1 (centres unmarked) [Example 116, [2-Chloro-4-[[3-[4-(difluoromethoxy)-2,3-difluoro-phenyl]imidazo[1,2-a]pyrazin-8-yl]amino]phenyl]-[4-[1-methyl-1-(pyrrolidin-3-ylmethyl)piperidin-1-ium-4-carbonyl]piperazin-1-yl]methanone Formate] | 81.1 | 
Cc1cc(Nc2nccn3c(-c4cn(CC#N)nc4C(F)(F)F)cnc23)ccc1C(=O)N1CCN(C(=O)C[N+](C)(C)C)CC1 [Example 64, [2-[4-[4-[[3-[1-(Cyanomethyl)-3-(trifluoromethyl)pyrazol-4-yl]imidazo[1,2-a]pyrazin-8-yl]amino]-2-methyl-benzoyl]piperazin-1-yl]-2-oxo-ethyl]-trimethyl-ammonium Formate] | 780 | 
C[N+](C)(C)CC(=O)N[C@H]1C[C@@H](NC(=O)c2ccc(Nc3nccn4c(-c5c[nH]nc5C(F)(F)F)cnc34)cc2Cl)C1 [Example 61, [2-[[3-[[2-Chloro-4-[[3-[3-(trifluoromethyl)-1H-pyrazol-4-yl]imidazo[1,2-a]pyrazin-8-yl]amino]benzoyl]amino]cyclobutyl]amino]-2-oxo-ethyl]-trimethyl-ammonium Formate] |  | IC90 [3]: 478 nM
CCc1cc(Nc2nccn3c(-c4ccc(OC(F)F)c(F)c4F)cnc23)ccc1C(=O)NCCC1CC[N+](C)(CC2CNC2)CC1 (centres unmarked) [Example 91, N-[2-[1-(azetidin-3-ylmethyl)-1-methyl-piperidin-1-ium-4-ylethyl]-4-[[3-[4-(difluoromethoxy)-2,3-difluoro-phenyl]imidazo[1,2-a]pyrazin-8-yl]amino]-2-ethyl-benzamide Diformate] |  | IC90 [2]: 834 nM
CCc1cc(Nc2nccn3c(-c4ccc(Oc5ncccn5)c(F)c4F)cnc23)ccc1C(=O)NCC1CC[N+](C)(CC2CCNC2)CC1 (centres unmarked) [Example 118, 4-[[3-(2,3-Difluoro-4-pyrimidin-2-yloxy-phenyl)imidazo[1,2-a]pyrazin-8-yl]amino]-2-ethyl-N-[[1-methyl-1-(pyrrolidin-3-ylmethyl)piperidin-1-ium-4-yl]methyl]benzamide Formate] | 832 | 
CCc1cc(Nc2nccn3c(-c4cn(CC#N)nc4C(F)(F)F)cnc23)ccc1C(=O)NCCCCC[N+](C)(C)CC(=O)O [Example 110, Carboxymethyl-[5-[[4-[[3-[1-(cyanomethyl)-3-(trifluoromethyl)pyrazol-4-yl]imidazo[1,2-a]pyrazin-8-yl]amino]-2-ethyl-benzoyl]amino]pentyl]-dimethyl-ammonium Formate] | 4300 | 

Continued, in another order:

IC90 [1] [nM] | SMILES | also measured
258 | CCc1cc(Nc2nccn3c(-c4ccc(OC)c(F)c4F)cnc23)ccc1C(=O)NCC1CC(NC(=O)C2CC[N+](C)(CC3CNC3)CC2)C1 (centres unmarked) [Example 127, 1-(Azetidin-3-ylmethyl)-N-[3-[[[4-[[3-(2,3-difluoro-4-methoxy-phenyl)imidazo[1,2-a]pyrazin-8-yl]amino]-2-ethyl-benzoyl]amino]methyl]cyclobutyl]-1-methyl-piperidin-1-ium-4-carboxamide formate 2,2,2-trifluoroacetate (Mixed Salt)] | 
40.3 | COc1ccc(-c2cnc3c(Nc4ccc(C(=O)N[C@H]5C[C@@H](NC(=O)C[N+](C)(C)C)C5)c(C)c4)nccn23)c(F)c1F [Example 72, 2-(((1s,3s)-3-(4-((3-(2,3-Difluoro-4-methoxyphenyl)imidazo[1,2-a]pyrazin-8-yl)amino)-2-methylbenzamido)cyclobutyl)amino)-N,N,N-trimethyl-2-oxoethan-1-aminium Chloride] | 
223 | CCc1cc(Nc2nccn3c(-c4ccc(OC(F)F)c(F)c4F)cnc23)ccc1C(=O)NCCNC(=O)C1CC[N+](C)(CC2CCNC2)CC1 (centres unmarked) [Example 102, N-[2-[[4-[[3-[4-(Difluoromethoxy)-2,3-difluoro-phenyl]imidazo[1,2-a]pyrazin-8-yl]amino]-2-ethyl-benzoyl]amino]ethyl]-1-methyl-1-(pyrrolidin-3-ylmethyl)piperidin-1-ium-4-carboxamide bis(2,2,2-trifluoroacetate)] | 
44.7 | COc1ccc(-c2cnc3c(Nc4ccc(C(=O)N5CCN(C(=O)C[N+](C)(C)C)CC5)c(Cl)c4)nccn23)c(F)c1F [Example 12, 2-(4-(2-Chloro-4-((3-(2,3-difluoro-4-methoxyphenyl)imidazo[1,2-a]pyrazin-8-yl)amino)benzoyl)piperazin-1-yl)-N,N,N-trimethyl-2-oxoethan-1-aminium Iodide] | 
609 | CCc1cc(Nc2nccn3c(-c4ccc(OC)c(F)c4F)cnc23)ccc1C(=O)NCC1CC[N+](CC)(CC2CNC2)CC1 (centres unmarked) [Example 143, N-[[1-(Azetidin-3-ylmethyl)-1-ethyl-piperidin-1-ium-4-yl]methyl]-4-[[3-(2,3-difluoro-4-methoxy-phenyl)imidazo[1,2-a]pyrazin-8-yl]amino]-2-ethyl-benzamide Formate] | 
320 | CCc1cc(Nc2nccn3c(-c4ccc(OC)c(F)c4F)cnc23)ccc1C(=O)NCC1CC[N+](C)(CC(=O)NCC2CCNC2)CC1 (centres unmarked) [Example 132, 4-[[3-(2,3-Difluoro-4-methoxy-phenyl)imidazo[1,2-a]pyrazin-8-yl]amino]-2-ethyl-N-[[1-methyl-1-[2-oxo-2-(pyrrolidin-3-ylmethylamino)ethyl]piperidin-1-ium-4-yl]methyl]benzamide bis(2,2,2-trifluoroacetate)] | 
86.2 | CCc1cc(Nc2nccn3c(-c4ccc(OC)c(F)c4F)cnc23)ccc1C(=O)NCCCNC(=O)C1CC[N+](C)(CC2CNC2)CC1 (centres unmarked) [Example 129, 1-(Azetidin-3-ylmethyl)-N-[3-[[4-[[3-(2,3-difluoro-4-methoxy-phenyl)imidazo[1,2-a]pyrazin-8-yl]amino]-2-ethyl-benzoyl]amino]propyl]-1-methyl-piperidin-1-ium-4-carboxamide bis(trifluoroacetate)] | 
3830 | CCc1cc(Nc2nccn3c(-c4cn(CC#N)nc4C(F)(F)F)cnc23)ccc1C(=O)NCCCCC[N+](C)(CC(=O)O)CC1CNC1 (centres unmarked) [Example 109, Azetidin-3-ylmethyl-(carboxymethyl)-[5-[[4-[[3-[1-(cyanomethyl)-3-(trifluoromethyl)pyrazol-4-yl]imidazo[1,2-a]pyrazin-8-yl]amino]-2-ethyl-benzoyl]amino]pentyl]-methyl-ammonium Formate] | 
955 | CCc1cc(Nc2nccn3c(-c4ccc(OC)c(F)c4F)cnc23)ccc1C(=O)NC1CC[N+](C)(CC2CNC2)CC1 (centres unmarked) [Example 136, N-[1-(Azetidin-3-ylmethyl)-1-methyl-piperidin-1-ium-4-yl]-4-[[3-(2,3-difluoro-4-methoxy-phenyl)imidazo[1,2-a]pyrazin-8-yl]amino]-2-ethyl-benzamide bis(2,2,2-trifluoroacetate)] | 

Source: US20230141600A1, “IMIDAZOPYRAZINE DERIVATIVES” (priority 2020, published 2023)
